The values below come from PubChem BioAssay (NCI).

SMILES strings stand for the structures. “And” between values parts separate entries of the source, which are not always exact repeats. Identical values can stand only once.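 In this assay, cells in 96-well plates receive the compound at five concentrations for 48 hours. Endpoints are linearly interpolated between the surrounding concentrations. GI50 marks 50% less growth. TGI is the concentration that stops growth completely.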

Among the test systems are SK-MEL-2 melanoma; NCI-H522 lung; UACC-257 melanoma; SF-295 CNS; RPMI-8226 leukemia; OVCAR-8 ovarian; SN12C renal; NCI-H23 lung; M14 melanoma; SK-OV-3 ovarian.
Assay in all cases: DTP human tumour cell line panel, 48 h

Take `N#CC12CC3(CCC1CCC1(C2)OCCO1)OCCO3` (configuration not stated): the TGI with SK-MEL-2 melanoma, with NCI-H522 lung, with UACC-257 melanoma, in the test with SF-295 CNS, in the test on RPMI-8226 leukemia and with OVCAR-8 ovarian was more than 100 µM throughout. Further, the total growth inhibition concentration (TGI) in the test on SN12C renal, in the test on NCI-H23 lung, in the test on M14 melanoma and with SK-OV-3 ovarian was more than 100 µM throughout.

On to `CC(=O)N1c2ccc(-c3ccc(C(=O)O)cc3)cc2[C@H](Nc2ccc(Cl)cc2)C[C@@H]1C`, for which the GI50 with SK-MEL-2 melanoma was 0.581 µM; in the test with NCI-H522 lung it was 0.0637 µM; with UACC-257 melanoma, 0.366 µM; in the test with SF-295 CNS, 0.477 µM; in the test with RPMI-8226 leukemia, 0.0615 µM; in the test on OVCAR-8 ovarian, 2.52 µM. Also, the GI50 is 3.89 µM in the test on SN12C renal, 0.918 µM with NCI-H23 lung, 0.096 µM in the test on M14 melanoma and 0.138 µM with SK-OV-3 ovarian. Moreover, the TGI in the test with SK-MEL-2 melanoma is 14.3 µM; in the test on NCI-H522 lung it was 11.5 µM; with UACC-257 melanoma it was 21.5 µM; in the test on SF-295 CNS, 18.1 µM; in the test on RPMI-8226 leukemia it was 18.6 µM; with OVCAR-8 ovarian, 63.5 µM. For the same compound, the TGI turned out to be 99 µM in the test with SN12C renal, 44.3 µM with NCI-H23 lung, 23.2 µM in the test with M14 melanoma and 22.5 µM in the test on SK-OV-3 ovarian.

Turning to `O=[N+]([O-])c1ccc2nc(=S)[nH]n2c1`, the TGI in the test on SK-MEL-2 melanoma, in the test with NCI-H522 lung, in the test on UACC-257 melanoma, with SF-295 CNS, in the test with RPMI-8226 leukemia and in the test on OVCAR-8 ovarian was more than 100 µM each time. For the same compound, the TGI in the test on SN12C renal, with NCI-H23 lung, in the test on M14 melanoma and with SK-OV-3 ovarian was more than 100 µM each time.

For `CC(=O)c1cccc(NC(=O)/C(=N\NC(=S)NN)C2C(=O)Nc3ccccc3S2=O)c1` (configuration not stated), the concentration for total growth inhibition (TGI) in the test on SK-MEL-2 melanoma, in the test on NCI-H522 lung, in the test on UACC-257 melanoma, with SF-295 CNS, with RPMI-8226 leukemia and in the test on OVCAR-8 ovarian was more than 100 µM throughout. Besides, the TGI with SN12C renal, with NCI-H23 lung, with M14 melanoma and with SK-OV-3 ovarian was more than 100 µM each time.

On to `CC(=O)Nc1cc(CN2CCCCC2)c(O)c2ncccc12`, for which the TGI with SK-MEL-2 melanoma is 23 µM; in the test with NCI-H522 lung it was more than 100 µM; in the test with UACC-257 melanoma, 88.7 µM; in the test on SF-295 CNS, more than 100 µM; in the test on RPMI-8226 leukemia it was 51.1 µM; in the test on OVCAR-8 ovarian, more than 100 µM. Further, the total growth inhibition concentration (TGI) in the test with SN12C renal is 70.9 µM; in the test on NCI-H23 lung, more than 100 µM; in the test on M14 melanoma it was 68.2 µM; with SK-OV-3 ovarian, more than 100 µM.

With `NC(N)=NC(N)=NCc1ccco1`, the GI50 in the test on SK-MEL-2 melanoma was more than 1250 µM; with NCI-H522 lung, more than 1250 µM; in the test with UACC-257 melanoma, 843 µM and 565 µM; with SF-295 CNS, 321 µM; in the test on RPMI-8226 leukemia it was 818 µM; in the test with OVCAR-8 ovarian it was 896 µM. For the same compound, the GI50 in the test on SN12C renal was more than 1250 µM; with NCI-H23 lung, 869 µM and 661 µM; in the test on M14 melanoma it was more than 1250 µM; with SK-OV-3 ovarian, more than 1250 µM. The TGI in the test on SK-MEL-2 melanoma, in the test on NCI-H522 lung, in the test with UACC-257 melanoma, in the test with SF-295 CNS, with OVCAR-8 ovarian and in the test with SN12C renal was more than 1250 µM each time. The TGI with NCI-H23 lung, with M14 melanoma and with SK-OV-3 ovarian was more than 1250 µM throughout.

For the compound `COc1ccc2c(c1)O/C(=C\c1ccc([N+](=O)[O-])s1)C2=O`, the TGI with SK-MEL-2 melanoma was more than 27 µM; in the test with NCI-H522 lung, 0.738 µM; in the test on UACC-257 melanoma it was more than 100 µM; with SF-295 CNS, more than 47.4 µM; with RPMI-8226 leukemia, more than 100 µM; in the test with OVCAR-8 ovarian, more than 100 µM. The TGI is more than 100 µM in the test with SN12C renal, 5.92 µM in the test on NCI-H23 lung, more than 100 µM in the test on M14 melanoma and more than 62.7 µM in the test with SK-OV-3 ovarian. Also, the GI50 in the test with NCI-H522 lung is 0.241 µM; in the test on RPMI-8226 leukemia, 1.69 µM; with OVCAR-8 ovarian, 2.19 µM; in the test with SN12C renal, 2.28 µM; in the test on NCI-H23 lung it was 1.33 µM; in the test with M14 melanoma, 2.89 µM. Besides, the GI50 with SK-OV-3 ovarian was more than 22.7 µM.

On to `COc1ccc(-c2cc(=O)c3cccnc3[nH]2)cc1`, for which the TGI in the test on SK-MEL-2 melanoma, in the test with NCI-H522 lung, in the test on UACC-257 melanoma, with SF-295 CNS, in the test with RPMI-8226 leukemia and in the test on OVCAR-8 ovarian was more than 100 µM throughout. In addition, the TGI is more than 100 µM in the test on SN12C renal, more than 100 µM with NCI-H23 lung, 95.6 µM with M14 melanoma and more than 100 µM in the test with SK-OV-3 ovarian. For the same compound, the GI50 in the test on SF-295 CNS was 65 µM.

As to `COC(=O)CCc1c(/C=C2\N=C(c3ccc[nH]3)C=C2OC)[nH]c(C)c1C(=O)OCc1ccccc1`, the GI50 is 0.304 µM with SK-MEL-2 melanoma; 0.653 µM in the test with NCI-H522 lung; 1.16 µM in the test with UACC-257 melanoma; 0.384 µM in the test with SF-295 CNS; 0.343 µM with RPMI-8226 leukemia; 0.432 µM in the test on OVCAR-8 ovarian. Further, the GI50 with SN12C renal was 0.442 µM; in the test on NCI-H23 lung it was 0.795 µM; in the test with M14 melanoma, 0.256 µM; in the test on SK-OV-3 ovarian, 1.67 µM. In addition, the total growth inhibition concentration (TGI) in the test on SK-MEL-2 melanoma was found to be 1.24 µM; with NCI-H522 lung it was 2.88 µM; in the test with UACC-257 melanoma, 5.25 µM; with SF-295 CNS, 1.73 µM; in the test with RPMI-8226 leukemia, 2.27 µM; in the test on OVCAR-8 ovarian, 5.75 µM. Further, the TGI in the test with SN12C renal stood at 2.5 µM; with NCI-H23 lung, 4.31 µM; with M14 melanoma it was 0.784 µM; in the test on SK-OV-3 ovarian, 12.6 µM.

As for `COc1ccc(-c2cc3c(N)ncnc3o2)cc1`, the GI50 in the test on SK-MEL-2 melanoma, in the test on NCI-H522 lung, in the test with UACC-257 melanoma, in the test on SF-295 CNS, in the test with RPMI-8226 leukemia and in the test with OVCAR-8 ovarian was more than 25 µM each time. For the same compound, the GI50 with SN12C renal is 14.8 µM; in the test with NCI-H23 lung, more than 25 µM; with M14 melanoma, more than 19.1 µM; in the test with SK-OV-3 ovarian, more than 25 µM. The TGI with SK-MEL-2 melanoma, in the test with NCI-H522 lung, in the test with UACC-257 melanoma, in the test on SF-295 CNS, in the test on RPMI-8226 leukemia and in the test with OVCAR-8 ovarian was more than 25 µM in each case. Also, the TGI with SN12C renal, in the test with NCI-H23 lung, with M14 melanoma and in the test with SK-OV-3 ovarian was more than 25 µM in each case.
